Experiment [1] is filed under the species Rattus norvegicus. The experiment is described as follows: Induction of magnesium accumulation in rat adipocyte plasma membrane vesicles assessed as increase of magnesium level per gram of protein per 30 mins at 5 x 10^-8 M by fluorescence assay. The format is functional, cell membranes.
For experiment [2], the species on record is Rattus norvegicus. The experiment is described as follows: Induction of magnesium accumulation in rat adipocyte plasma membrane vesicles assessed as increase of intravesicular magnesium level per 30 mins at 5 x 10^-8 M by fluorescence assay. The format is functional, cell membranes.
Another experiment concerns Lipid bilayer. Description: Lipolytic activity in isolated rat adipocytes assessed as fatty acid release at 0.5 to 100 nmol/ml.
The species entered for experiment [3] is Rattus norvegicus. Description: Induction of magnesium accumulation in rat adipocyte plasma membrane vesicles assessed as increase of magnesium level per gram of protein per 30 mins at 2 x 10^-4 M by fluorescence assay. In kind it is functional, cell membranes.
Experiment [4] is filed under the species Rattus norvegicus. Description: Induction of magnesium accumulation in rat adipocyte plasma membrane vesicles assessed as increase of intravesicular magnesium level per 30 mins at 2 x 10^-4 M by fluorescence assay. In kind it is functional, cell membranes.
The species named for experiment [5] is Rattus norvegicus. The experiment is described as follows: Induction of magnesium accumulation in rat adipocyte plasma membrane vesicles assessed as increase of intravesicular magnesium level per 30 mins at 1 x 10^-5 M by fluorescence assay. The format is functional, cell membranes.
Experiment [6] is filed under the species Rattus norvegicus. The experiment is described as follows: Induction of magnesium accumulation in rat adipocyte plasma membrane vesicles assessed as increase of magnesium level per gram of protein per 30 mins at 1 x 10^-5 M by fluorescence assay. In kind it is functional, cell membranes.
The species entered for experiment [7] is Rattus norvegicus. The experiment is described as follows: Induction of magnesium accumulation in rat adipocyte plasma membrane vesicles assessed as increase of intravesicular magnesium level per 30 mins at 1 x 10^-5 M by fluorescence assay in presence of beta-adrenergic antagonist propranolol. The format is functional, cell membranes.
For experiment [8], the species on record is Rattus norvegicus. The experiment is described as follows: Induction of magnesium accumulation in rat adipocyte plasma membrane vesicles assessed as increase of magnesium level per gram of protein per 30 mins at 1 x 10^-5 M by fluorescence assay in presence of alpha-adrenergic antagonist phentolamine. In kind it is functional, cell membranes.
Experiment [9] is filed under the species Rattus norvegicus. The experiment is described as follows: Induction of magnesium accumulation in rat adipocyte plasma membrane vesicles assessed as increase of intravesicular magnesium level per 30 mins at 1 x 10^-5 M by fluorescence assay in presence of alpha-adrenergic antagonist phentolamine. In kind it is functional, cell membranes.
Experiment [10] is filed under the species Rattus norvegicus. The experiment is described as follows: Induction of magnesium accumulation in rat adipocyte plasma membrane vesicles assessed as increase of magnesium level per gram of protein per 30 mins at 1 x 10^-5 M by fluorescence assay in presence of beta-adrenergic antagonist propranolol. In kind it is functional, cell membranes.

The source made the active and inactive calls. The rule behind the calls is not given here. Residues, ends and D or L forms follow the SMILES beside them.

With `CSCC[C@H](NC(=O)[C@H](CO)NC(=O)[C@H](Cc1ccc(O)cc1)NC(=O)[C@@H](N)CO)C(=O)N[C@@H](CCC(=O)O)C(=O)N[C@@H](Cc1cnc[nH]1)C(=O)N[C@@H](Cc1ccccc1)C(=O)N[C@@H](CCCNC(=N)N)C(=O)N[C@@H](Cc1c[nH]c2ccccc12)C(=O)NCC(=O)N[C@@H](CCCCN)C(=O)N1CCC[C@H]1C(=O)N[C@H](C(=O)NCC(=O)N[C@@H](CCCCN)C(=O)N[C@@H](CCCCN)C(=O)N[C@@H](CCCNC(=N)N)C(=O)N[C@@H](CCCNC(=N)N)C(=O)N1CCC[C@H]1C(=O)N[C@H](C(=O)O)C(C)C)C(C)C` (H-SYSMEHFRWGKPVGKKRRPV-OH), the Activity in the experiment filed under Rattus norvegicus [1] was found to be 3.74 µmol; in the experiment filed under Rattus norvegicus [2], 0.36 mM. The outcome in the experiment on Lipid bilayer was Active.

Take `CSCC[C@H](NC(=O)[C@H](CO)NC(=O)[C@H](Cc1ccc(O)cc1)NC(=O)[C@@H](N)CO)C(=O)N[C@@H](CCC(=O)O)C(=O)N[C@@H](Cc1cnc[nH]1)C(=O)N[C@@H](Cc1ccccc1)C(=O)N[C@@H](CCCNC(=N)N)C(=O)N[C@@H](Cc1c[nH]c2ccccc12)C(=O)NCC(=O)N[C@@H](CCCCN)C(=O)N1CCC[C@H]1C(=O)N[C@H](C(=O)NCC(=O)N[C@@H](CCCCN)C(=O)N[C@@H](CCCCN)C(=O)N[C@@H](CCCNC(=N)N)C(=O)N[C@@H](CCCNC(=N)N)C(=O)N1CCC[C@H]1C(=O)N[C@H](C(=O)N[C@@H](CCCCN)C(=O)N[C@H](C(=O)N[C@@H](Cc1ccc(O)cc1)C(=O)N1CCC[C@H]1C(=O)N[C@@H](CC(N)=O)C(=O)NCC(=O)N[C@@H](C)C(=O)N[C@@H](CCC(=O)O)C(=O)N[C@@H](CC(=O)O)C(=O)N[C@@H](CCC(=O)O)C(=O)N[C@@H](CC(C)C)C(=O)N[C@@H](C)C(=O)N[C@@H](CCC(=O)O)C(=O)N[C@@H](C)C(=O)N[C@@H](Cc1ccccc1)C(=O)N1CCC[C@H]1C(=O)N[C@@H](CC(C)C)C(=O)N[C@@H](CCC(=O)O)C(=O)N[C@@H](Cc1ccccc1)C(=O)O)C(C)C)C(C)C)C(C)C` (H-SYSMEHFRWGKPVGKKRRPVKVYPNGAEDELAEAFPLEF-OH): the figures for the Activity in the experiment filed under Rattus norvegicus [1] and in the experiment filed under Rattus norvegicus [2] were 9.78 µmol and 0.94 mM, respectively.

As to `COc1ccc(OC)c(C(O)C(C)N)c1` (stereo not drawn), the values for the Activity in the experiment filed under Rattus norvegicus [3] and in the experiment listed under Rattus norvegicus [4] were 11.1 µmol and 1.07 mM, respectively.

In the case of `CC(C)NCC(O)c1ccc(O)c(O)c1` (stereo not drawn), the Activity in the experiment listed under Rattus norvegicus [5] turned out to be 0.3 mM; in the experiment listed under Rattus norvegicus [6], 3.12 µmol.

Consider `CC(C)[C@H](NC(=O)[C@H](CCCCN)NC(=O)[C@@H](NC(=O)[C@@H]1CCCN1C(=O)[C@H](CCCNC(=N)N)NC(=O)[C@H](CCCNC(=N)N)NC(=O)[C@H](CCCCN)NC(=O)[C@H](CCCCN)NC(=O)CNC(=O)[C@@H](NC(=O)[C@@H]1CCCN1C(=O)[C@@H](N)CCCCN)C(C)C)C(C)C)C(=O)N[C@@H](Cc1ccc(O)cc1)C(=O)N1CCC[C@H]1C(=O)O` (H-KPVGKKRRPVKVYP-OH), for which the figures for the Activity in the experiment listed under Rattus norvegicus [1] and in the experiment listed under Rattus norvegicus [2] were 8.32 µmol and 0.8 mM, respectively. Moreover, the outcome in the experiment with Lipid bilayer was inactive.

As to `NC[C@H](O)c1ccc(O)c(O)c1`, the Activity was determined as 0.85 mM in the experiment listed under Rattus norvegicus [7]; 1.3 mM in the experiment filed under Rattus norvegicus [5]; 3.85 µmol in the experiment filed under Rattus norvegicus [8]; 0.37 mM in the experiment listed under Rattus norvegicus [9]; 8.84 µmol in the experiment filed under Rattus norvegicus [10]; 13.5 µmol in the experiment filed under Rattus norvegicus [6].

For the origin of these results see ChEMBL document CHEMBL3271967, “Evidence for separate peptide sequences related to the lipolytic and magnesium-accumulating activities of ACTH. Analogy with adrenergic receptors” (J Med Chem, 1977).
